Assay results: ChEMBL document CHEMBL1140622, “Structure based de novo design of novel glycogen synthase kinase 3 inhibitors” (Bioorg Med Chem, 2007)

Assay: Inhibition of GSK3
`CN1CCN(c2cnc(NCCNc3ccc([N+](=O)[O-])c(N)n3)nc2-c2ccc(Cl)cc2Cl)C(=O)C1` gave an IC50 of 4 nM. For `O=C1NC(=O)C(c2cnc3cccnn23)=C1c1cn2c3c(cccc13)CN(C(=O)N1CCCCC1)CC2` [BISARYLMALEIMIDE 1], the IC50 was 0.7 nM. `O=C1NC(=O)C(c2cncc3ccoc23)=C1c1cn2c3c(cccc13)CN(C(=O)N1CCOCC1)CC2` [BISARYLMALEIMIDE 2] gave an IC50 of 0.8 nM. `CN(C)CCCn1cc(C2=C(c3c[nH]c4ccccc34)C(=O)NC2=O)c2ccccc21` [GF-109203] showed an IC50 of 190 nM. Compound `CC(=O)NC1=NC(=O)/C(=C2\CCNC(=O)c3c2cc(Br)n3C(C)=O)N1` [HYMENIALDISINE 2] has an IC50 of 130 nM. `CC(=O)O/N=C1/C(=C2/C(=O)Nc3cc(Cl)c(Cl)cc32)Nc2ccccc21` [INDIRUBIN 1] gave an IC50 of 4 nM. In the case of `O=C1Nc2ccc(Br)cc2/C1=C1/Nc2ccccc2/C1=N\O` [INDIRUBIN 2], the IC50 is reported as 5 nM. Work on `O=C1NC(=O)C2=C1c1cn(c3ccccc13)CCOCCOCCOCCn1cc2c2cccnc21` [INDOLYLYLMALEIMIDE 1] yielded an IC50 of 17 nM. For `O=C1NC(=O)C2=C1c1cn(c3ccccc13)CCOCCOCCOCCn1cc2c2ccccc21` [INDOLYLYLMALEIMIDE 2], the IC50 was 22 nM. `COc1cccc(Nc2nccc(-c3cnn4ncccc34)n2)c1` [PYRAZOLOPYRIDAZINE 1] showed an IC50 of 10 nM. With `COc1ccc(Nc2nccc(-c3cnn4ncccc34)n2)cc1OC` [PYRAZOLOPYRIDAZINE 2] the IC50 was 12 nM. For `CN(C)CCNC(=O)c1ccc(/C=N/Nc2ncnc3c2cnn3-c2cccc3[nH]cnc23)cc1` [PYRAZOLOPYRIMIDINE 1], the “Log IC50” value was -8.8. With `COc1cccc(-n2ncc3c(N/N=C/c4ccc(S(C)(=O)=O)cc4)ncnc32)c1` [PYRAZOLOPYRIMIDINE 2] the “Log IC50” value was -8.6.
